According to patent publication US20060111551A1, “Peptide having HTLV-1-specific CTL-inducing activity” (priority 2003, published 2006):

Experiments:
[1] = system: CTL induced from post-HSCT patient R07; settings: HLA-A24+ TOK cells pulsed with peptide; effector-to-target ratio 8; 18 hours; FIG. 5
Procedure: Following 18 hours of incubation, IFN-γ in the supernatant was measured by ELISA assay. Values represent the mean of duplicate assays.
IFN-γ production by the effector cells was measured by ELISA (Human IFN-γ ELISA Kit; Endogen, Woburn, Mass.) following 18 hours of incubation with target cells at various E/T ratios in duplicate.
Subsequently, epitope mapping of these CTL was performed. […] The present inventors stained these cultured PBMCs with the tetramer of HLA-A*2402/Tax301-309.

[2] = system: uncultured PBMC of recipient #37 and donor #36; assay: IFN-γ ELISPOT assay of uncultured PBMC; assay type: cell-based, human; settings: overnight incubation with 10 μg/ml peptide, mean±SD of triplicate
Text: IFN-γ producing antigen-specific T cells were counted using IFN-γ-specific ELISPOT assays as previously described (J. Immunol. Methods 191, 131-142, 1996; J. Exp. Med. 186, 859-865, 1997). […] After 10-min reaction with BICP/NBT alkaline phosphatase substrate (SIGMA), colored spots on the dried membranes were counted using a KS-ELISPOT microscopy system (Carl Zeiss, Jena, Germany).
It was next investigated whether there are any qualitative or quantitative differences in HTLV-I-specific CTL responses among pre-HSCT #37, post-HSCT #37, and donor #36. To examine HTLV-I-specific CTL precursor cell number without experimental biases by in vitro culture, frozen stored PBMC were immediately subjected to ELISPOT assay for IFN-γ production. The results of CTL precursor in the uncultured PBMC of recipient #37 and donor #36 responding to ILT-#37 or Tax epitope are shown in Table 1. […] Values represent the mean±SD of triplicate assays. Further, the results of ELISPOT assay of IFN-γ are shown by spot forming cells (SFC) per 10^5 PBMC.

[3] = system: CTL line of post-HSCT patient #37; settings: LCL-#36 cells pulsed with 10 mM peptide; effector-to-target ratio 10; FIG. 3
Procedure: Values represent the mean of specific lysis of triplicate assays.
Cytotoxic activities were measured by 6-hour ^51Cr-release assay at various effector-to-target (E/T) cell ratios as described previously (J. Natl. Cancer Inst. 93, 1775-1783, 2001; J. Virol. 76, 7010-7019, 2002). Specific cytotoxicity was calculated as ([experimental ^51Cr release−spontaneous ^51Cr release]/[maximum ^51Cr release−spontaneous ^51Cr release]×100%).

Sequence: SFHSLHLLFEEYTNI [Tax301-315]
- reaction with responder cells (IFN-γ production against peptide-pulsed TOK cells) [1]: selectively reacted

Sequence: LLFEEYTNI [Tax307-315, synthetic oligopeptide of HTLV-I Tax]
- IFN-γ-producing SFC/10^5 PBMC, Donor #36 ([2]; PBMC of donor #36): 1 ± 0.6 SFC/10^5 PBMC
- IFN-γ-producing SFC/10^5 PBMC, Post-HSCT #37 ([2]; PBMC of post-HSCT patient #37): 2 ± 1 SFC/10^5 PBMC
- IFN-γ-producing SFC/10^5 PBMC, Pre-HSCT #37 ([2]; PBMC of pre-HSCT patient #37): 18 ± 2 SFC/10^5 PBMC

Sequence: MAHFPGFGQSLLFGYPVYVFGDCV [Tax1-24]
- killing of peptide-pulsed LCL-#36 cells by CTL line of post-HSCT patient #37 [3]: selectively killed
